The record followed here is patent publication US7691843B2, “N-hydroxyamide derivatives possessing antibacterial activity” (Pfizer Inc., priority 2002, dated 2010).

Common to all, as to assay type: in vivo
Experiment [1] concerns Escherichia coli ATCC 25922. The experiment in a line: Efficacy in murine E. coli septicemia. As to conditions: ATCC25922; ICR mice inoculated intraperitoneally with Escherichia coli ATCC 25922 at 4×10^4 CFU; administered intravenously 1 hour after inoculation (doses in mg/kg); mortality recorded 7 days; non-linear regression. As to the method:
(§1) Efficacy studies were performed in an E. coli murine septicemia model according to models published elsewhere (Goldstein, B. P., G. Candiani, T. M. Arain, G. Romano, I. Ciciliato, M. Berti, M. Abbondi, R. Scotti, M. Mainini, F. Ripamonti, and et al. 1995. Antimicrobial activity of MDL 63,246, a new semisynthetic glycopeptide antibiotic Antimicrob Agents Chemother. 39:1580-1588; Misiek, M., T. A. Pursiano, F. Leitner, and K. E. Price 1973. Microbiological properties of a new cephalosporin, BL-S 339: 7-(phenylacetimidoyl-aminoacetamido)-3-(2-methyl-1,3,4-thiadiazol-5-ylthio methyl)ceph-3-em-4-carboxylic acid Antimicrob Agents Chemother. 3:40-48).
The compound was dissolved in 10% DMSO, 0.1% Tween 80, 0.9% NaCl solution and administered intravenously at 10 ml/kg at 1 hour after bacterial inoculation. The compound was administered at 80, 40, 20, 5, 2.5, and 1.25 mg/kg. A control with ampicillin was included in the evaluation.
Male or female ICR mice weighing 22±2 g from MDS Pharma Services were used for the evaluation. Food and water was given ad libitum. Groups of 6 mice weighing 22+g were used for the experiment. Mice were inoculated intraperitoneally with Escherichia coli ATCC 25922 at 4×10^4 CFU in 0.5 ml of Brain Heart Infusion Broth (Difco) containing 5% mucin (Sigma). Mortality was recorded once daily for 7 days following bacterial inoculation.

Experiment [2] deals with Proteus vulgaris ATCC 13315. Briefly: Efficacy in murine Proteus vulgaris septicemia. As to conditions: ATCC13315; ICR mice inoculated intraperitoneally with Proteus vulgaris ATCC 13315 at 1×10^8 CFU; administered intravenously 1 hour after inoculation (doses in mg/kg); mortality recorded 7 days; non-linear regression. The procedure: as §1, with “P. vulgaris” for “E. coli”
(§2) The compound was dissolved in 10% DMSO, 0.1% Tween 80, 0.9% NaCl solution and administered intravenously at 10 ml/kg at 1 hour after bacterial inoculation. The compound was administered at 20, 10, 5, 2.5, and 1.25 mg/kg. A control with ampicillin was included in the evaluation.
Male or female ICR mice weighing 24±2 g from MDS Pharma Services were used for the evaluation. Food and water was given ad libitum. Groups of 6 mice weighing 24±g were used for the experiment. Mice were inoculated intraperitoneally with Proteus vulgaris ATCC 13315 at 1×10^8 CFU in 0.5 ml of Brain Heart Infusion Broth (Difco) containing 5% mucin (Sigma). Mortality was recorded once daily for 7 days following bacterial inoculation.

Experiment [3] concerns Klebsiella pneumoniae ATCC 10031. Briefly: Efficacy in murine Klebsiella pneumoniae septicemia. As to conditions: ATCC10031; ICR mice inoculated intraperitoneally with Klebsiella pneumoniae ATCC 10031 at 3×10^7 CFU; administered intravenously 1 hour after inoculation (doses in mg/kg); mortality recorded 7 days; non-linear regression. As to the method:
as §1, with “K. pneumoniae” for “E. coli”
as §2
Male or female ICR mice weighing 24±2 g from MDS Pharma Services were used for the evaluation. Food and water was given ad libitum. Groups of 6 mice weighing 24±g were used for the experiment. Mice were inoculated intraperitoneally with Klebsiella pneumoniae ATCC 10031 at 3×10^7 CFU in 0.5 ml of Brain Heart Infusion Broth (Difco) containing 5% mucin (Sigma). Mortality was recorded once daily for 7 days following bacterial inoculation.

The structures appear in SMILES notation.

As to `CC1(C)S[C@@H]2[C@H](NC(=O)[C@H](N)c3ccccc3)C(=O)N2[C@H]1C(=O)O` [ampicillin], the ED50 in experiment [1] was found to be 14.1 mg/kg; in experiment [2], 29.7 mg/kg; in experiment [3] it was 6.8 mg/kg.
